Tested on: T1, ASP-J1-4 L-ASNase
T1 construct: gene ansZ; native enzyme from culture broth, acetone precipitation, dialysis, DEAE-Sepharose; 36 kDa (37 kDa in abstract) by SDS-PAGE; no L-glutaminase activity
Assay: ammonia release, Nessler's reagent, A436; Lineweaver-Burk plot
Type: biochemical, Bacillus xiamenensis
Conditions: 0.02-2.42 mM L-ASN; regular assay conditions (pH and temperature not restated for kinetics)

## NC(=O)C[C@H](N)C(=O)O [L-ASN]
  Km: 150 µM

From PMC12113540, “Isolation and Characterization of L-Asparaginase-Producing Bacteria from the Arabian–Persian Gulf Region: First Report on Bacillus xiamenensis ASP-J1-4 as a Producer and Its Potential Application” (Marine Drugs, 2025)
